Results published in patent US20260262643A1, “HERBICIDAL BENZOXAZINES” (FMC CORPORATION, priority 2022, published 2026).
Read-outs that look alike come from different tables or passages of the source.

Columns and labels:
[1] = tested on: corn; assay: Test A postemergence; assay type: in vivo, Zea mays; settings: Zea mays, post-emergence, 240 h, postemergence, 10 days, 0 to 100 scale (0 no effect, 100 complete control); for plant injury at 125 g/ha: 125 g ai/ha, read-out: Corn plant response rating; for Corn plant response rating (crop injury, 0 = no effect, 100 = complete kill) at 500 g/ha: 500 g ai/ha, visual injury
Outline: (§1)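 Loam/sand soil; pre-em directed soil spray at planting, post-em spray at 1–2 leaf (2–10 cm). Compound in non-phytotoxic solvent + surfactant. Greenhouse 10 d; visual injury vs untreated, 0 = no effect, 100 = complete control.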

[2] = tested on: goosegrass; assay: Test A postemergence; assay type: in vivo, Eleusine indica; settings: Eleusine indica, post-emergence, 240 h, postemergence, 10 days, 0 to 100 scale (0 no effect, 100 complete control); for pest or weed control at 125 g/ha: 125 g ai/ha, read-out: Goosegrass plant response rating; for pest or weed control at 500 g/ha: 500 g ai/ha, visual injury, read-out: Plant response rating, Goosegrass
Outline: as §1

[3] = tested on: foxtail, giant; assay: Test A postemergence; assay type: in vivo, Setaria faberi; settings: Setaria faberi, post-emergence, 240 h, postemergence, 10 days, 0 to 100 scale (0 no effect, 100 complete control); for pest or weed control at 125 g/ha: 125 g ai/ha, read-out: Foxtail, Giant plant response rating; for pest or weed control at 500 g/ha: 500 g ai/ha, visual injury, read-out: Plant response rating, Foxtail, Giant
Outline: as §1

[4] = tested on: goosegrass; assay: Test A preemergence; assay type: in vivo, Eleusine indica; settings: Eleusine indica, pre-emergence, 240 h, read-out: Plant response rating, Goosegrass; for pest or weed control at 125 g/ha: 125 g ai/ha; for pest or weed control at 500 g/ha: 500 g ai/ha
Outline: as §1

[5] = tested on: barnyardgrass; assay: Test B flooded paddy test; assay type: in vivo, Echinochloa crus-galli; settings: Echinochloa crus-galli, 312 h, 250 g ai/ha, Flood, 13 days, 0 to 100 scale (0 no effect, 100 complete control); read-out: Plant response rating, Barnyardgrass
Outline: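 Flooded to 3 cm at treatment time, 2-leaf plants got the test compound applied straight into the paddy water. They then stayed under constant flood in a greenhouse for 13 days. Ratings used a 0 to 100 visual scale.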

[6] = tested on: blackgrass; assay: Test A postemergence; assay type: in vivo, Alopecurus myosuroides; settings: Alopecurus myosuroides, post-emergence, 240 h, postemergence, 10 days, 0 to 100 scale (0 no effect, 100 complete control); for pest or weed control at 125 g/ha: 125 g ai/ha, read-out: Blackgrass plant response rating; for pest or weed control at 500 g/ha: 500 g ai/ha, visual injury, read-out: Plant response rating, Blackgrass
Outline: as §1

[7] = tested on: corn; assay: Test A preemergence; assay type: in vivo, Zea mays; settings: Zea mays, pre-emergence, 240 h; for Corn plant response rating (crop injury, 0 = no effect, 100 = complete kill) at 125 g/ha: 125 g ai/ha; for Corn plant response rating (crop injury, 0 = no effect, 100 = complete kill) at 500 g/ha: 500 g ai/ha
Outline: as §1

[8] = tested on: horseweed; assay: Test A postemergence; assay type: in vivo, Erigeron canadensis; settings: Erigeron canadensis, post-emergence, 240 h, postemergence, 10 days, 0 to 100 scale (0 no effect, 100 complete control); for pest or weed control at 125 g/ha: 125 g ai/ha, read-out: Horseweed plant response rating; for pest or weed control at 500 g/ha: 500 g ai/ha, visual injury, read-out: Plant response rating, Horseweed
Outline: as §1

[9] = tested on: wheat; assay: Test A preemergence; assay type: in vivo, Triticum aestivum; settings: Triticum aestivum, pre-emergence, 240 h, read-out: Plant response rating, Wheat; for plant injury at 125 g/ha: 125 g ai/ha; for plant injury at 500 g/ha: 500 g ai/ha
Outline: as §1

[10] = tested on: ragweed; assay: Test A preemergence; assay type: in vivo, Ambrosia artemisiifolia; settings: Ambrosia artemisiifolia, pre-emergence, 240 h, read-out: Plant response rating, Ragweed; for pest or weed control at 125 g/ha: 125 g ai/ha; for pest or weed control at 500 g/ha: 500 g ai/ha
Outline: as §1

[11] = tested on: ryegrass, Italian; assay: Test A preemergence; assay type: in vivo, Lolium multiflorum; settings: Lolium multiflorum, pre-emergence, 240 h, read-out: Plant response rating, Ryegrass, Italian; for pest or weed control at 125 g/ha: 125 g ai/ha; for pest or weed control at 500 g/ha: 500 g ai/ha
Outline: as §1

[12] = tested on: pigweed, palmer; assay: Test A postemergence; assay type: in vivo, Amaranthus palmeri; settings: Amaranthus palmeri, post-emergence, 240 h, postemergence, 10 days, 0 to 100 scale (0 no effect, 100 complete control); for pest or weed control at 125 g/ha: 125 g ai/ha, read-out: Pigweed, Palmer plant response rating; for pest or weed control at 500 g/ha: 500 g ai/ha, visual injury, read-out: Plant response rating, Pigweed, Palmer
Outline: as §1

[13] = tested on: foxtail, giant; assay: Test A preemergence; assay type: in vivo, Setaria faberi; settings: Setaria faberi, pre-emergence, 240 h, read-out: Plant response rating, Foxtail, Giant; for pest or weed control at 125 g/ha: 125 g ai/ha; for pest or weed control at 500 g/ha: 500 g ai/ha
Outline: as §1

[14] = visual injury after 10 days, 0 to 100 scale, 0 is no effect, 100 is complete control
[15] = 0 to 100 scale (0 no effect, 100 complete control), 10 days

Row | Compound | plant injury at 125 g/ha [1] | Corn plant response rating (crop injury, 0 = no effect, 100 = complete kill) at 500 g/ha [1] | pest or weed control at 125 g/ha [2] | pest or weed control at 500 g/ha [2] | pest or weed control at 125 g/ha [3] | pest or weed control at 500 g/ha [3] | pest or weed control at 125 g/ha [4, 14] | pest or weed control at 250 g/ha [5] | pest or weed control at 125 g/ha [6] | pest or weed control at 500 g/ha [6] | Corn plant response rating (crop injury, 0 = no effect, 100 = complete kill) at 125 g/ha [7, 14] | pest or weed control at 125 g/ha [8] | pest or weed control at 500 g/ha [8] | plant injury at 125 g/ha [9, 14] | pest or weed control at 125 g/ha [10, 14] | pest or weed control at 125 g/ha [11, 14] | pest or weed control at 125 g/ha [12] | pest or weed control at 500 g/ha [12] | pest or weed control at 125 g/ha [13, 14] | other results
1 | CCc1ccc(-n2cnc(C(C)C)n2)cc1C(=O)N1C[C@H](C)Oc2c(Cl)cccc21 [Compound 94, [(2S)-8-Chloro-2,3-dihydro-2-methyl-4H-1,4-benzoxazin-4-yl][2-ethyl-5-[3-(1-methylethyl)-1H-1,2,4-triazol-1-yl]phenyl]methanone] | 80% | 90% | 60% | 90% | 90% | 90% | 100% | 30% | 60% | 90% | 60% | 0% | 50% | 50% | 0% | 90% | 90% | 90% | 100% | pest or weed control at 500 g/ha [4, 15]: 100%; Corn plant response rating (crop injury, 0 = no effect, 100 = complete kill) at 500 g/ha [7, 15]: 90%; plant injury at 500 g/ha [9, 15]: 90%; pest or weed control at 500 g/ha [10, 15]: 0%; pest or weed control at 500 g/ha [11, 15]: 100%; pest or weed control at 500 g/ha [13, 15]: 100%
2 | Cc1ccc(-n2ncnc2C)cc1C(=O)N1C[C@H](C)Oc2c(Cl)cccc21 (single isomer, unassigned) [Compound 126] | 0% | 10% | 0% | 0% | 0% | 70% | 20% | 0% | 0% | 40% | 0% | 0% | 40% | 0% | 0% | 40% | 0% | 30% | 60% | pest or weed control at 500 g/ha [4, 14]: 90%; Corn plant response rating (crop injury, 0 = no effect, 100 = complete kill) at 500 g/ha [7, 14]: 40%; plant injury at 500 g/ha [9, 14]: 30%; pest or weed control at 500 g/ha [10, 14]: 0%; pest or weed control at 500 g/ha [11, 14]: 70%; pest or weed control at 500 g/ha [13, 14]: 100%
